The source made the active and inactive calls. The rule behind the calls is not given here.
Key:
Rattus norvegicus [1] = experiment: The Compound was tested in vivo for DOPA accumulation in hemispheres (cortex) against reserpine-pretreated rats; I= inactive at the highest dose tested (12.5).; assay type: functional, organism-based
Rattus norvegicus [2] = experiment: Bioavailability in male Sprague-Dawley rats, after the iv administration at a dose of 4.0(pmol/g/h); assay type: ADME, organism-based; conditions: in vivo
[3] = Ratio of the 5-HTP accumulation decrease in limbic regions after oral and subcutaneous administration in rat.; assay type: functional, Limbic system
[4] = tmax in hours at a iv dose of 4.0(pmol/g/h).; assay type: ADME, organism-based; conditions: in vivo
[5] = tmax in hours at a po dose of 10.0(pmol/g/h).; assay type: ADME, organism-based; conditions: in vivo, 10 pmol/g/h
[6] = Bioavailability in rat plasma following iv/po dose; assay type: ADME, organism-based
Rattus norvegicus [7] = experiment: Bioavailability in male Sprague-Dawley rats, after the po administration at a dose of 10.0(pmol/g/h); assay type: ADME, organism-based; conditions: in vivo
Rattus norvegicus [8] = experiment: The Compound was tested in vivo for DOPA accumulation in limbic system against reserpine-pretreated rats; P=significant partial reduction only at the highest dose tested (50).; assay type: functional, organism-based
Rattus norvegicus [9] = experiment: Compound was tested in vivo for 5-HTP accumulation in hemispheres (cortex) against reserpine-pretreated rats;I= inactive at the highest dose tested (50).; assay type: functional, organism-based
Rattus norvegicus [10] = experiment: The Compound was tested in vivo for DOPA accumulation in hemispheres (cortex) against reserpine-pretreated rats;I= inactive at the highest dose tested (50).; assay type: functional, organism-based
Rattus norvegicus [11] = experiment: Compound was tested in vivo for 5-HTP accumulation in corpus striatum against reserpine-pretreated rats;I= inactive at the highest dose tested (50).; assay type: functional, organism-based
Rattus norvegicus [12] = experiment: Compound was tested in vivo for DOPA accumulation in corpus striatum against reserpine-pretreated rats;P= significant partial reduction only at the highest dose tested (50).; assay type: functional, organism-based
Rattus norvegicus [13] = experiment: Compound was tested in vivo for 5-HTP accumulation in limbic system against reserpine-pretreated rats;P= significant partial reduction only at the highest dose tested (50).; assay type: functional, organism-based
D(2) dopamine receptor [14] = molecular target: T1, D(2) dopamine receptor (Rattus norvegicus, UniProt P61169); experiment: Binding affinity against Dopamine receptor D2 from CHO-K1 cells, using [3H]U-86,170 as the radioligand.; assay type: cell-based
T1 sequence (P61169 whole entry): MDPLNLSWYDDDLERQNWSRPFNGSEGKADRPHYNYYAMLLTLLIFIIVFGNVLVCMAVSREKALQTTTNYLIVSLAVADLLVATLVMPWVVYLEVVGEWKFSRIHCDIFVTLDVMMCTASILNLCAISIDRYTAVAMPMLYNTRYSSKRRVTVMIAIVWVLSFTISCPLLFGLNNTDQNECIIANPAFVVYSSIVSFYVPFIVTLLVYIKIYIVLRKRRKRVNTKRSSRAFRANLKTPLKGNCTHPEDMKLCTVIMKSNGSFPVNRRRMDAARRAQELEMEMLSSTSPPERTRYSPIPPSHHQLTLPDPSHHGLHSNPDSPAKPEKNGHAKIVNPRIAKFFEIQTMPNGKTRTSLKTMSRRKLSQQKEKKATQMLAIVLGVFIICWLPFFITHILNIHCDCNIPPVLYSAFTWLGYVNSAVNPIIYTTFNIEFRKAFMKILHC

[15] = molecular target: 5-hydroxytryptamine receptor 1D (Homo sapiens, UniProt P28221); experiment: Binding affinity against 5-hydroxytryptamine 1D receptor alpha expressed in CHO-K1 cells, using [3H]-5-HT as the radioligand.; assay type: cell-based; conditions: read-out: Ki
Chain of 5-hydroxytryptamine receptor 1D (P28221 whole entry): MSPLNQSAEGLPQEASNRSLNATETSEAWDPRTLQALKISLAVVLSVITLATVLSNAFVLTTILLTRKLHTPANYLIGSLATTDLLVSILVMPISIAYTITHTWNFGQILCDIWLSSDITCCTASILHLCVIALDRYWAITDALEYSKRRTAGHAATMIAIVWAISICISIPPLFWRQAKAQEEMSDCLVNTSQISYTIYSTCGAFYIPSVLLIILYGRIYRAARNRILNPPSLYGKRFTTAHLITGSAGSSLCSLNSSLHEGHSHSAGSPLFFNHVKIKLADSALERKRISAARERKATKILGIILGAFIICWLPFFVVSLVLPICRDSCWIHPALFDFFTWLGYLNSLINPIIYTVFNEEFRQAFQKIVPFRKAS

D(3) dopamine receptor [16] = molecular target: T2, D(3) dopamine receptor (Rattus norvegicus, UniProt P19020); experiment: Binding affinity against Dopamine receptor D3 from CHO-K1 cells, using [3H]spiperone as the radioligand.; assay type: cell-based; conditions: read-out: Ki
T2 sequence (P19020 whole entry): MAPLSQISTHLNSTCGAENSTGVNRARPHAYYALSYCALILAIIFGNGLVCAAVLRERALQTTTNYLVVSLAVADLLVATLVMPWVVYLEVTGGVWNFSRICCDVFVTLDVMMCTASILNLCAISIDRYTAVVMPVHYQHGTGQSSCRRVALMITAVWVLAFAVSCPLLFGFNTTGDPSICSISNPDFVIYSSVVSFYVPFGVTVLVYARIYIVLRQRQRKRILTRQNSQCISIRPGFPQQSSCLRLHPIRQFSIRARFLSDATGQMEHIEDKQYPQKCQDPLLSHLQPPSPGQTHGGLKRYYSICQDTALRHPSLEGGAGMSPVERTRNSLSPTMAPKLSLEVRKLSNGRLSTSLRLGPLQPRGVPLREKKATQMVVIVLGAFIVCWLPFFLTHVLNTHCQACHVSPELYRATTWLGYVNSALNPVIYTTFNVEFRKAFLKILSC

Rattus norvegicus [17] = experiment: The compound was tested in vivo for DOPA accumulation in limbic system against reserpine-pretreated rats; I=inactive at the highest dose tested; assay type: functional, organism-based
[18] = molecular target: 5-hydroxytryptamine receptor 1B (Homo sapiens, UniProt P28222); experiment: Binding affinity against 5-hydroxytryptamine 1D receptor beta expressed in CHO-K1 cells, using [3H]5-HT as the radioligand.; assay type: cell-based; conditions: read-out: Ki
Chain of 5-hydroxytryptamine receptor 1B (P28222 whole entry): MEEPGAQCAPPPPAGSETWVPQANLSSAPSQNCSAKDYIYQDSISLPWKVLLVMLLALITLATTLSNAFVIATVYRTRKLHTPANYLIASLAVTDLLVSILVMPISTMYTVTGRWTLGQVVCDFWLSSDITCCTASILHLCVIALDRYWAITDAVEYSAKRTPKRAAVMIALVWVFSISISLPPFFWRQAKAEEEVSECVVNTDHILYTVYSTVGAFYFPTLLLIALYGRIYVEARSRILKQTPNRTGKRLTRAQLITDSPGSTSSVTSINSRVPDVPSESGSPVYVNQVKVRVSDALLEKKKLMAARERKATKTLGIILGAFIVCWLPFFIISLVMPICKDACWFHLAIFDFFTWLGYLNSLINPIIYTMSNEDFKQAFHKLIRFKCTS

Rattus norvegicus [19] = experiment: compound was tested in vivo for 5-HTP accumulation in corpus striatum against reserpine-pretreated rats, activity expressed as ED50;I= inactive at the highest dose tested; assay type: functional, organism-based
Rattus norvegicus [20] = experiment: The compound was tested in vivo for DOPA accumulation in hemispheres (cortex) against reserpine-pretreated rats;I= inactive at the highest dose tested; assay type: functional, organism-based
[21] = molecular target: T3, 5-hydroxytryptamine receptor 1A (Rattus norvegicus, UniProt P19327); experiment: Binding affinity against 5-hydroxytryptamine 1A receptor from CHO-K1 cells, using [3H]8-OH-DPAT as the radioligand.; assay type: cell-based
T3 sequence (P19327 whole entry): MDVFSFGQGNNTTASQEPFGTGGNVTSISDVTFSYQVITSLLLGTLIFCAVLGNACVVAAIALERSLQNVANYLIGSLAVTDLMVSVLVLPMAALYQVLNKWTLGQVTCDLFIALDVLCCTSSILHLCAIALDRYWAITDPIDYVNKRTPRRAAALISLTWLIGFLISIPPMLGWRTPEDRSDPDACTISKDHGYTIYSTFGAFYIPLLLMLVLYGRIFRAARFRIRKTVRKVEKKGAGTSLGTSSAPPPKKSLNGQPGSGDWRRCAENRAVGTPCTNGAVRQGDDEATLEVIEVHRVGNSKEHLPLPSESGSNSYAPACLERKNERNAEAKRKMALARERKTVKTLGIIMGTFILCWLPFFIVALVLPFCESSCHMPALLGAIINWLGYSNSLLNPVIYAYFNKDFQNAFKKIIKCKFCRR

Rattus norvegicus [22] = experiment: Compound was tested in vivo for 5-HTP accumulation in limbic system against reserpine-pretreated rats;I=inactive at the highest dose tested (50).; assay type: functional, organism-based
Rattus norvegicus [23] = experiment: Compound was tested in vivo for DOPA accumulation in corpus striatum against reserpine-pretreated rats; P=significant partial reduction only at the highest dose tested (50).; assay type: functional, organism-based
Rattus norvegicus [24] = experiment: The compound was tested in vivo for DOPA accumulation in hemispheres (cortex) against reserpine-pretreated rats; I= inactive at the highest dose tested (20).; assay type: functional, organism-based
Rattus norvegicus [25] = experiment: The compound was tested in vivo for DOPA accumulation in limbic system against reserpine-pretreated rats; P=significant partial reduction only at the highest dose tested (20).; assay type: functional, organism-based
Rattus norvegicus [26] = experiment: compound was tested in vivo for 5-HTP accumulation in corpus striatum against reserpine-pretreated rats, activity expressed as ED50; P=significant partial reduction only at the highest dose tested (20).; assay type: functional, organism-based
D(3) dopamine receptor [27] = molecular target: T2, D(3) dopamine receptor; experiment: The compound was tested in vitro for binding affinity against cloned mammalian Dopamine receptor D3 expressed in CHO cells by, using [3H]spiperone as radioligand; assay type: cell-based
Rattus norvegicus [28] = experiment: compound was tested in vivo for DOPA accumulation in corpus striatum against reserpine-pretreated rats; P=significant partial reduction only at the highest dose tested (20).; assay type: functional, organism-based
Rattus norvegicus [29] = experiment: compound was tested in vivo for 5-HTP accumulation in limbic system against reserpine-pretreated rats; P=significant partial reduction only at the highest dose tested (20).; assay type: functional, organism-based
Rattus norvegicus [30] = experiment: compound was tested in vivo for 5-HTP accumulation in hemispheres (cortex) against reserpine-pretreated rats; P=significant partial reduction only at the highest dose tested (20).; assay type: functional, organism-based
D(2) dopamine receptor [31] = molecular target: T1, D(2) dopamine receptor; experiment: Binding affinity against Dopamine receptor D2 expressed in CHO-K1 cells, using [3H]U-86170 as the radioligand.; assay type: cell-based
[32] = tmax in hours at a iv dose of 5.0(pmol/g/h).; assay type: ADME, organism-based; conditions: in vivo
D(3) dopamine receptor [33] = molecular target: T2, D(3) dopamine receptor; experiment: Binding affinity against Dopamine receptor D3 expressed in CHO-K1 cells, using [3H]spiperone as the radioligand.; assay type: cell-based
Rattus norvegicus [34] = experiment: The Compound was tested in vivo for DOPA accumulation in hemispheres (cortex) against reserpine-pretreated rats; P=significant partial reduction only at the highest dose tested (12.5).; assay type: functional, organism-based
[35] = tmax in hours at a po dose of 40.0(pmol/g/h).; assay type: ADME, organism-based; conditions: in vivo
Rattus norvegicus [36] = experiment: Bioavailability in male Sprague-Dawley rats, after the iv administration at a dose of 5.0(pmol/g/h); assay type: ADME, organism-based; conditions: in vivo
[37] = Rat bioavailability after iv/po administration, expressed as %; assay type: ADME, organism-based; conditions: in vivo
Rattus norvegicus [38] = experiment: Bioavailability in male Sprague-Dawley rats, after the po administration at a dose of 40.0(pmol/g/h); assay type: ADME, organism-based; conditions: in vivo

CCCN(CCC)[C@@H]1CCc2ccc3[nH]c(C#N)cc3c2C1 [U-92,016-A]
ED50 (Rattus norvegicus [1]): inactive | AUC (Rattus norvegicus [2]): 1817 pM ml-1 | ED50 ratio [3]: 38 | Tmax [4]: 4 h | Tmax [5]: 75 h | bioavailability [6]: 63% | AUC (Rattus norvegicus [7]): 2857 pM ml-1

CCCN(CCC)C1CCc2ccc3cc[nH]c3c2C1 (centres undefined)
ED50 (Rattus norvegicus [8]): Weak activity | ED50 (Rattus norvegicus [9]): inactive | ED50 (Rattus norvegicus [10]): inactive | ED50 (Rattus norvegicus [11]): inactive | ED50 (Rattus norvegicus [12]): Weak activity | ED50 (Rattus norvegicus [13]): Weak activity

CCCN(CCC)C1CCc2ccc3c(c(C=O)cn3C)c2C1 (centres undefined)
Ki (D(2) dopamine receptor [14]): 0.51 µM | Ki [15]: 0.334 µM | Ki (D(3) dopamine receptor [16]): 1.01 µM | ED50 (Rattus norvegicus [17]): inactive | Ki [18]: 0.439 µM | ED50 (Rattus norvegicus [19]): inactive | ED50 (Rattus norvegicus [20]): inactive | Ki [21]: 0.04 µM

CCCN(CCC)C1CCc2ccc3c(c2C1)N(C=O)CC3 (centres undefined)
ED50 (Rattus norvegicus [8]): Weak activity | ED50 (Rattus norvegicus [9]): inactive | ED50 (Rattus norvegicus [10]): inactive | ED50 (Rattus norvegicus [11]): inactive | ED50 (Rattus norvegicus [22]): inactive | ED50 (Rattus norvegicus [23]): Weak activity

CCCN(CCC)C1CCc2cc(F)c3c(c(C=O)cn3C)c2C1 (centres undefined)
ED50 (Rattus norvegicus [24]): inactive | ED50 (Rattus norvegicus [25]): Weak activity | Ki [15]: 0.419 µM | ED50 (Rattus norvegicus [26]): Weak activity | Ki [18]: 0.618 µM | Ki (D(3) dopamine receptor [27]): 0.572 µM | ED50 (Rattus norvegicus [28]): Weak activity | ED50 (Rattus norvegicus [29]): Weak activity | ED50 (Rattus norvegicus [30]): Weak activity | Ki (D(2) dopamine receptor [31]): 1.03 µM | Ki [21]: 0.028 µM

CCCN(CCC)C1CCc2ccc3[nH]cc(C#N)c3c2C1 (centres undefined)
Ki [15]: 0.0075 µM | Tmax [32]: 2 h | Ki (D(3) dopamine receptor [33]): 0.043 µM | ED50 (Rattus norvegicus [34]): Weak activity | T max [35]: 135 h | Ki [18]: 0.038 µM | Ki (D(2) dopamine receptor [31]): 0.024 µM | Ki [21]: 0.0004 µM | AUC (Rattus norvegicus [36]): 1115 pM ml-1 | bioavailability [37]: 54% | AUC (Rattus norvegicus [38]): 4849 pM ml-1
